Test results published in patent US8314075B2, “Compositions and methods for inhibiting expression of huntingtin gene” (Alynylam Pharmaceuticals, Inc., priority 2005, dated 2012).

Tests used:
Huntingtin mRNA [1] = experiment: In vivo down-modulation of endogenous HD mRNA by intrastriatal infusion in mice; set-up: species or system mouse; conditions: Balb/c mice, 75 ug by 20 minute intrastriatal infusion, ipsilateral striatum, approximately 72 hours after injection
Experimental: In mice, 75 ug AL-DP-1998, or phosphate-buffered saline (PBS, vehicle control) was administered by a 20 minute intrastriatal infusion. Male Balb/c mice, approximately 20-25 g body weight, received unilateral injections of test article that were targeted to the striatum (anteroposterior+0.5 mm, mediolateral+2.0 mm, relative to bregma; dorsoventral 3.5 mm, relative to skull surface). Test articles (1.1 mM) were injected (4 animals per test article) at 0.25 uL/min. using pre-filled, pump-regulated Hamilton micro-syringes connected to a 33 gauge needle. Approximately 72 hours following the injection, animals were sacrificed, brains were removed, and ipsilateral striata encompassing the infusion site were dissected and flash frozen. As described above for rat tissue samples, mouse tissue samples were lysed, and Huntingtin and GAPDH mRNA levels quantified. For each tissue sample, the ratio of Huntingtin/GAPDH (normalized Huntingtin mRNA level) was calculated as an average of four determinations. These ratios were then averaged to obtain a group (treatment) average. The cholesterol-conjugated dsRNA, AL-DP-1998, reduced the normalized Huntingtin mRNA level by 33%, relative to the PBS control group, which was statistically significant (p<0.05, ANOVA with Tukey post-hoc analysis).

Huntingtin mRNA [2] = experiment: In vivo down-modulation of endogenous HD mRNA by continuous intrastriatal infusion in rats; set-up: species or system rat; conditions: 1.3 mg over 7 days (0.5 uL/hr at 1.1 mM), ipsilateral striatum
Experimental: In rats, 1.3 mg AL-DP-1997 or AL-DP-1998, or phosphate-buffered saline (PBS, vehicle control) was administered by continuous intrastriatal infusion over 7 days. Male Sprague-Dawley rats, approximately 250-300 g body weight, received stereotaxic implantation of 30-gauge infusion cannulae (Plastics One, Roanok, Va.) such that unilateral injections were targeted to the center of the striatum (anteroposterior+0.7 mm, mediolateral+3.0 mm, relative to bregma; dorsoventral 5 mm, relative to skull surface). Mini-osmotic pumps (model 1007D) were primed overnight according to the manufacturer's specifications, implanted subcutaneously, and connected via catheters, to deliver (4 rats per treatment group) PBS, 1.1 mM AL-DP-1997 or 1.1 mM AL-DP-1998 at 0.5 uL/hr over 7 days. At the end of the 7 day infusion period, animals were sacrificed, brains were removed, and ipsilateral striata encompassing the infusion site were flash frozen. Tissue samples of about 5-30 mg each were homogenized by sonication (BANDELIN electronic GmbH & Co. KG, Berlin, Germany) in Tissue and Cell Lysis solution (Epicentre, Madison, Wis.) containing 84 μg/ml Proteinase K (Epicentre, Madison, Wis.). Lysates were then stored at −80° C. For carrying out the bDNA assay, frozen lysates were thawed at room temperature, and Huntingtin and GAPDH mRNA were quantified using the Quantigene Explore Kit according to the manufacturer's instructions. For each tissue sample, the ratio of Huntingtin/GAPDH (normalized Huntingtin mRNA level) was calculated as an average of four determinations. These ratios were then averaged to obtain a group (treatment) average. The unconjugated dsRNA, AL-DP-1997, reduced the normalized Huntingtin mRNA level by 33%, relative to the PBS control group, whereas the cholesterol-conjugated dsRNA, AL-DP-1998, reduced the normalized Huntingtin mRNA level by 26%, relative to the PBS control group. Both reductions were statistically significant (p<0.05, ANOVA with Tukey post-hoc analysis).
With an identical experimental paradigm, AL-DP-5997 and AL-DP-6000 were also found to be effective in vivo in down-modulating HD mRNA levels after intrastriatal infusion with 1.3 mg over 7 days (0.5 uL/hr at 1.1 mM) in rats. AL-DP-5997 and AL-DP-6000 reduced the normalized Huntingtin mRNA levels in striatal tissue by 34% and 36%, respectively, relative to the PBS control group. In addition, AL-DP-5997 and AL-DP-6000 reduced the normalized Huntingtin mRNA levels in cortical tissue by 22% and 26% respectively.

AL-DP-1998: cholesterol-conjugated dsRNA based on AL-DP-5997, antisense 3'-end TT replaced with 5-bromo-2'-deoxyuridine; SEQ ID NO: 888/889 (chain 1 GUCACAAAGAACCGUGCAGTT; chain 2 CUGCACGGUUCUUUGUGACNN; chemistry not fully specified)
reduction of normalized Huntingtin mRNA level relative to the PBS control group (Huntingtin mRNA [1]): 33%
reduction of normalized Huntingtin mRNA level in striatal tissue relative to the PBS control group (Huntingtin mRNA [2]): 26%
